Assay results published in paper PMC8508374, “In Silico Identification and Evaluation of Natural Products as Potential Tumor Necrosis Factor Function Inhibitors Using Advanced Enalos Asclepios KNIME Nodes” (International Journal of Molecular Sciences, 2021).

Molecular target: T1, TNF (TNF-TNFR1 binding) (Homo sapiens, UniProt P01375)
T1 construct: soluble TNF and its receptor TNFR1 in sandwich ELISA; human TNF-alpha (Peprotech) is printed for the cell assays; with Tumor necrosis factor receptor superfamily member 1A
T1 sequence (P01375 77-233): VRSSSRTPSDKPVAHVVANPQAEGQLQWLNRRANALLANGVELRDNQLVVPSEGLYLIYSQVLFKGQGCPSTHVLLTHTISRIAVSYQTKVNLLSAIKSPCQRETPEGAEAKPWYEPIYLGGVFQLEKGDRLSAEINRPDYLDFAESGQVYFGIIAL
T1 sequence (P19438 30-455 partner): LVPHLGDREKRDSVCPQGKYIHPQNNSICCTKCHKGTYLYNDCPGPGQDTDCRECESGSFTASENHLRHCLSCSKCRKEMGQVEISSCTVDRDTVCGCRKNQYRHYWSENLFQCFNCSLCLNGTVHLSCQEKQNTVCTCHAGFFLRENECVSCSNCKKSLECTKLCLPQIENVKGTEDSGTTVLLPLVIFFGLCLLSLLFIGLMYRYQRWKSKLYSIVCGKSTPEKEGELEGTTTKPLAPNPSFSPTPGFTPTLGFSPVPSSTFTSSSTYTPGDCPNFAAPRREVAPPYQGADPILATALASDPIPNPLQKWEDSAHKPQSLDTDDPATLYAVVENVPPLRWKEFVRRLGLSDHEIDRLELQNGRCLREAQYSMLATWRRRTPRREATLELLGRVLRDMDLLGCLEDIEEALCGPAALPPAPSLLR
Assay: TNF-TNFR1 sandwich ELISA, inhibition of binding
Settings: inhibition of TNF-TNFR1 interaction

IC50: 90.2 ± 19 µM
Structure (SMILES): Oc1ccc([C@@H]2c3c(O)cc4c(c3C3C2c2c(c(O)cc5c2[C@H](c2cc(O)cc(O)c2)[C@@H](c2ccc(O)cc2)O5)[C@H]3c2ccccc2)[C@H](c2cc(O)cc(O)c2)[C@@H](c2ccc(O)cc2)C4)cc1 (stereo partly shown) [Nepalensinol B]
